From US9187472B2 (AbbVie Inc., priority 2012, dated 2015)

What was measured:
PC3 cells = assay: NAMPT Cell Proliferation Assay; type: cell-based; details: Homo sapiens, PC-3, 120 h, 5 days incubation, cell viability by Cell Titer Glo
Procedure, shortened: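 IC50 values derive from sigmoidal dose-response fits of percent inhibition of PC3 viability, measured by luminescence after 5 days of compound treatment. Cells (500/well, RPMI containing 10% heat-inactivated FBS) are allowed to attach overnight, and compounds are tested at 10-fold dilutions between 10 μM and 1×10^−5 μM.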

NAMPT = NAMPT (Homo sapiens, UniProt P43490); assay: TR-FRET Binding Assay of NAMPT with PRPP; details: with 200 μM PRPP and 2.5 mM ATP; 2 nM NAMPT, 2 nM probe, 16 hours equilibration
Chain of NAMPT (P43490 whole entry): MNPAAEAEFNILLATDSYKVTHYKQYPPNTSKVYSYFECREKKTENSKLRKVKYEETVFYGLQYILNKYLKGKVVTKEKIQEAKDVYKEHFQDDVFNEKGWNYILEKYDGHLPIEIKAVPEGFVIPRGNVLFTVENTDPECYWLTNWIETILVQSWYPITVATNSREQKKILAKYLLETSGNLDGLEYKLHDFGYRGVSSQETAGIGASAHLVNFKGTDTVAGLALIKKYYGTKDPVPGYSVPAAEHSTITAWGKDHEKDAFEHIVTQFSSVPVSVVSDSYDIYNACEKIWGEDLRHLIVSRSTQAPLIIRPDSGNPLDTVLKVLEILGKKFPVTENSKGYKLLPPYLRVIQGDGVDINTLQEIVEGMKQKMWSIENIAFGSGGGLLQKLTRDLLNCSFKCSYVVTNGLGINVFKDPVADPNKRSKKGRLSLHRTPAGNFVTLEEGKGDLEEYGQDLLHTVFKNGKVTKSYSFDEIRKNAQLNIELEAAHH
Procedure, shortened: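 NAMPT 2 nM + probe 2 nM + Tb-anti-His Ab 1 nM; PRPP 200 μM, ATP 2.5 mM, DMSO 2%; 16 h equilibration before TR-FRET read.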

[1] = target: NAMPT (human, recombinant, C-terminally His-tagged) (Homo sapiens, UniProt P43490); assay: Time-Resolved Fluorescence Resonance Energy Transfer (TR-FRET) Binding Assay of NAMPT; details: without substrates; 6.8 nM NAMPT, 200 nM probe, 3 hours equilibration
Chain of NAMPT (human, recombinant, C-terminally His-tagged) (P43490 whole entry): as above
Procedure, shortened: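 Read-out is the time-resolved FRET ratio Em520/Em495 (excitation 337 nm) between a terbium anti-His antibody (1 nM) on the enzyme and an Oregon Green 488-labelled nicotinamide-competitive inhibitor probe (200 nM). Enzyme was 6.8 nM, DMSO 2%, pH 7.5 HEPES buffer; 3 h room-temperature equilibration preceded reading.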

Row | SMILES | IC50 (PC3 cells) | IC50 (NAMPT) | IC50 [1]
1 | CC(C)CCNC(=O)c1cnc(NC(=O)NCc2ccn3ccnc3c2)s1 [Example 407, 2-{[(imidazo[1,2-a]pyridin-7-ylmethyl)carbamoyl]amino}-N-(3-methylbutyl)-1,3-thiazole-5-carboxamide] | 1310 nM | 0.659 nM | 220 nM
2 | CC[C@H](C)C(=O)NC1(c2ccc(C(=O)NCc3ccn4ccnc4c3)s2)COC1 [Example 408, N-(imidazo[1,2-a]pyridin-7-ylmethyl)-5-(3-{[(2S)-2-methylbutanoyl]amino}oxetan-3-yl)thiophene-2-carboxamide] | 19.2 nM | 0.725 nM | 276 nM
3 | CC(C)CC(=O)N1CCC(n2nccc2C(=O)NCc2ccn3ccnc3c2)CC1 [Example 409] | ≥ 10000 nM | 480 nM | > 10000 nM
4 | CC(=O)N1CCC(Oc2ccc(C(=O)NCc3ccn4ccnc4c3)cc2)CC1 [Example 411, 4-[(1-acetylpiperidin-4-yl)oxy]-N-(imidazo[1,2-a]pyridin-7-ylmethyl)benzamide] | 4720 nM | 0.556 nM | 1870 nM
5 | CC(C)C(=O)N1CCC(Oc2ccc(C(=O)NCc3ccn4ccnc4c3)cc2)CC1 [Example 412, N-(imidazo[1,2-a]pyridin-7-ylmethyl)-4-{[1-(2-methylpropanoyl)piperidin-4-yl]oxy}benzamide] | 978 nM | 0.424 nM | 1250 nM
6 | CC[C@H](C)C(=O)N1CCC(Oc2ccc(C(=O)NCc3ccn4ccnc4c3)cc2)CC1 [Example 413, N-(imidazo[1,2-a]pyridin-7-ylmethyl)-4-({1-[(2S)-2-methylbutanoyl]piperidin-4-yl}oxy)benzamide] | 190 nM | 0.279 nM | 805 nM
7 | O=C(NCc1ccn2ccnc2c1)c1ccc(OC2CCN(C(=O)CC3CC3)CC2)cc1 [Example 414, 4-{[1-(cyclopropylacetyl)piperidin-4-yl]oxy}-N-(imidazo[1,2-a]pyridin-7-ylmethyl)benzamide] | 853 nM | 0.307 nM | 2630 nM
8 | O=C(NCc1ccn2ccnc2c1)c1ccc(OC2CCN(C(=O)c3ccccc3)CC2)cc1 [Example 415, 4-[(1-benzoylpiperidin-4-yl)oxy]-N-(imidazo[1,2-a]pyridin-7-ylmethyl)benzamide] | 234 nM | 0.246 nM | 1620 nM
9 | CC(C)OCC(=O)N1CCC(Oc2ccc(C(=O)NCc3ccn4ccnc4c3)cc2)CC1 [Example 416, N-(imidazo[1,2-a]pyridin-7-ylmethyl)-4-({1-[(propan-2-yloxy)acetyl]piperidin-4-yl}oxy)benzamide] | 659 nM | 0.318 nM | 2500 nM
10 | CC(C)(O)C(=O)N1CCC(Oc2ccc(C(=O)NCc3ccn4ccnc4c3)cc2)CC1 [Example 417, 4-{[1-(2-hydroxy-2-methylpropanoyl)piperidin-4-yl]oxy}-N-(imidazo[1,2-a]pyridin-7-ylmethyl)benzamide] | 867 nM | 0.264 nM | 6840 nM
11 | O=C(NCc1ccn2ccnc2c1)c1ccc(OC2CCN(C(=O)[C@H]3CCCO3)CC2)cc1 [Example 418, N-(imidazo[1,2-a]pyridin-7-ylmethyl)-4-({1-[(2R)-tetrahydrofuran-2-ylcarbonyl]piperidin-4-yl}oxy)benzamide] | 866 nM | 0.233 nM | 4750 nM
12 | O=C(NCc1ccn2ccnc2c1)c1ccc(OC2CCN(C(=O)[C@@H]3CCCO3)CC2)cc1 [Example 419, N-(imidazo[1,2-a]pyridin-7-ylmethyl)-4-({1-[(2S)-tetrahydrofuran-2-ylcarbonyl]piperidin-4-yl}oxy)benzamide] | 365 nM | 0.197 nM | 2430 nM
13 | O=C(NCc1ccn2ccnc2c1)c1ccc(OC2CCN(C(=O)C3CCOCC3)CC2)cc1 [Example 420, N-(imidazo[1,2-a]pyridin-7-ylmethyl)-4-{[1-(tetrahydro-2H-pyran-4-ylcarbonyl)piperidin-4-yl]oxy}benzamide] | 147 nM | 0.226 nM | 2710 nM
14 | O=C(NCc1ccn2ccnc2c1)c1ccc(OC2CCN(C(=O)C3COCCO3)CC2)cc1 (stereo not drawn) [Example 421, 4-{[1-(1,4-dioxan-2-ylcarbonyl)piperidin-4-yl]oxy}-N-(imidazo[1,2-a]pyridin-7-ylmethyl)benzamide] | 317 nM | 0.271 nM | 2450 nM
15 | O=C(NCc1ccn2ccnc2c1)c1ccc(OC2CCN(C(=O)CC3CCOCC3)CC2)cc1 [Example 422, N-(imidazo[1,2-a]pyridin-7-ylmethyl)-4-{[1-(tetrahydro-2H-pyran-4-ylacetyl)piperidin-4-yl]oxy}benzamide] | 109 nM | 0.212 nM | 1720 nM
16 | O=C(NCc1ccn2ccnc2c1)c1ccc(OC2CCN(C(=O)CN3CCOCC3)CC2)cc1 [Example 423, N-(imidazo[1,2-a]pyridin-7-ylmethyl)-4-{[1-(morpholin-4-ylacetyl)piperidin-4-yl]oxy}benzamide] | 187 nM | 0.338 nM | 8260 nM
17 | CC(=O)N1CC(Oc2ccc(NC(=O)NCc3ccn4ccnc4c3)cc2)C1 [Example 424, 1-{4-[(1-acetylazetidin-3-yl)oxy]phenyl}-3-(imidazo[1,2-a]pyridin-7-ylmethyl)urea] | 521 nM | 0.494 nM | 988 nM
18 | CC(C)C(=O)N1CC(Oc2ccc(NC(=O)NCc3ccn4ccnc4c3)cc2)C1 [Example 425, 1-(imidazo[1,2-a]pyridin-7-ylmethyl)-3-(4-{[1-(2-methylpropanoyl)azetidin-3-yl]oxy}phenyl)urea] | 69 nM | 0.227 nM | 153 nM
19 | CC[C@H](C)C(=O)N1CC(Oc2ccc(NC(=O)NCc3ccn4ccnc4c3)cc2)C1 [Example 426, 1-(imidazo[1,2-a]pyridin-7-ylmethyl)-3-[4-({1-[(2S)-2-methylbutanoyl]azetidin-3-yl}oxy)phenyl]urea] | 6.4 nM | 0.169 nM | 25.6 nM
20 | O=C(NCc1ccn2ccnc2c1)Nc1ccc(OC2CN(C(=O)CC3CC3)C2)cc1 [Example 427, 1-(4-{[1-(cyclopropylacetyl)azetidin-3-yl]oxy}phenyl)-3-(imidazo[1,2-a]pyridin-7-ylmethyl)urea] | 62.2 nM | 0.27 nM | 150 nM
21 | O=C(NCc1ccn2ccnc2c1)Nc1ccc(OC2CN(C(=O)c3ccccc3)C2)cc1 [Example 428, 1-{4-[(1-benzoylazetidin-3-yl)oxy]phenyl}-3-(imidazo[1,2-a]pyridin-7-ylmethyl)urea] | 67.5 nM | 0.258 nM | 87.1 nM
22 | CC(C)OCC(=O)N1CC(Oc2ccc(NC(=O)NCc3ccn4ccnc4c3)cc2)C1 [Example 429, 1-(imidazo[1,2-a]pyridin-7-ylmethyl)-3-[4-({1-[(propan-2-yloxy)acetyl]azetidin-3-yl}oxy)phenyl]urea] | 18.6 nM | 0.396 nM | 129 nM
23 | CC(C)(O)C(=O)N1CC(Oc2ccc(NC(=O)NCc3ccn4ccnc4c3)cc2)C1 [Example 430, 1-(4-{[1-(2-hydroxy-2-methylpropanoyl)azetidin-3-yl]oxy}phenyl)-3-(imidazo[1,2-a]pyridin-7-ylmethyl)urea] | 88.6 nM | 0.264 nM | 292 nM
24 | O=C(NCc1ccn2ccnc2c1)Nc1ccc(OC2CN(C(=O)[C@H]3CCCO3)C2)cc1 [Example 431, 1-(imidazo[1,2-a]pyridin-7-ylmethyl)-3-[4-({1-[(2R)-tetrahydrofuran-2-ylcarbonyl]azetidin-3-yl}oxy)phenyl]urea] | 71.9 nM | 0.276 nM | 301 nM
25 | O=C(NCc1ccn2ccnc2c1)Nc1ccc(OC2CN(C(=O)[C@@H]3CCCO3)C2)cc1 [Example 432, 1-(imidazo[1,2-a]pyridin-7-ylmethyl)-3-[4-({1-[(2S)-tetrahydrofuran2-ylcarbonyl]azetidin-3-yl}oxy)phenyl]urea] | 36.3 nM | 0.33 nM | 304 nM
26 | O=C(NCc1ccn2ccnc2c1)Nc1ccc(OC2CN(C(=O)C3CCOCC3)C2)cc1 [Example 433, 1-(imidazo[1,2-a]pyridin-7-ylmethyl)-3-(4-{[1-(tetrahydro-2H-pyran-4-ylcarbonyl)azetidin-3-yl]oxy}phenyl)urea] | 64.4 nM | 0.248 nM | 200 nM
27 | O=C(NCc1ccn2ccnc2c1)Nc1ccc(OC2CN(C(=O)C3COCCO3)C2)cc1 (stereo not drawn) [Example 434, 1-(4-{[1-(1,4-dioxan-2-ylcarbonyl)azetidin-3-yl]oxy}phenyl)-3-(imidazo[1,2-a]pyridin-7-ylmethyl)urea] | 5.59 nM | 0.169 nM | 102 nM
28 | O=C(NCc1ccn2ccnc2c1)Nc1ccc(OC2CN(C(=O)CC3CCOCC3)C2)cc1 [Example 435, 1-(imidazo[1,2-a]pyridin-7-ylmethyl)-3-(4-{[1-(tetrahydro-2H-pyran-4-ylacetyl)azetidin-3-yl]oxy}phenyl)urea] | 20.4 nM | 0.191 nM | 163 nM
